Results reported in patent US10654805B2, “Pyridinethiones, pharmaceutical compositions thereof, and their therapeutic use for treating a proliferative, inflammatory, neurodegenerative, or immune-mediated disease” (BioTheryX, Inc., priority 2016, dated 2020).

Key:
[1] = tested on: myelin basic protein (MBP); test: Induction of myelin basic protein (MBP) production in MO3-13 cells, slot blot with anti-MBP antibody; assay type: cell-based, human; details: with and without cuprizone; for relative MBP binding compared with vehicle control: MO3-13 cells, p<0.0001, FIG. 2; for relative MBP binding (anti-MBP antibody): MO3-13 whole cell extracts
Method: Whole cell extracts of MO3-13 cells were prepared using 6 M urea. An aliquot of 100 μL was removed and diluted with an equal volume of 6 M urea. A 5 μL aliquot was removed and quantitated for protein levels. Total protein concentrations were determined using the BioRad protein assay method at 595 nm. Total protein in the whole cell extracts was determined and a ratio of recovered protein was used to calculate the relative amount of MBP in the whole cell extracts. Whole cell extracts were diluted to 0.1 mg/mL. Extracts containing 2.5 μg of protein were applied onto nitrocellulose membrane in a slot blotter using a vacuum method to draw the sample onto the membrane. The non-protein sites on the membrane were blocked with 2% ECL blocking reagent diluted in PBS-Tween20. Primary anti-Bovine MBP was diluted in the same block solution at 300×. The primary antibody was incubated one hour at room temperature with gentle shaking. The blot was developed using enhanced ECL (GE Healthcare) method. Image of bound antibody were captured using Image Lab software driving a Bio-Rad ChemiDoc XRS+ image capture system. The data was graphically represented using Graph Pad Prism software.

C57/B6 mice = test: Cuprizone model of demyelination in mice: brain myelination scores; assay type: in vivo
Method: (§1) The ability of compound A1 to effect the demyelination process was evaluated in a cuprizone model of demyelination in mice. Thirty-six male C57/B6 mice aged 7-8 weeks were acclimated for 1 week prior to study commencement and housed 2 mice per cage. Mice in Group 1 received control chow without cuprizone, and all other mice were fed mouse diet containing 0.2% cuprizone for 5 weeks. Food was changed every other day, body and food weights were obtained daily. All cuprizone and control food was stored in vacuum containers and stored frozen until use.
(§2) Dosing solutions were prepared fresh on each day of dosing. Compound A1 was first dissolved in DMSO in a volume of 10% of the final volume, followed by addition of solutol HS-15 in a volume of 10% of the final volume and a solution of 10% hydroxypropyl-β-cyclodextrin in a volume of 80% of the final volume. Unless otherwise noted, all test articles were administered in a volume of 0.1 mL/10 g body weight.
(§3) During this process, mice received either vehicle or compound A1 at 50 mg/kg or 100 mg/kg via intraperitoneal injection daily. At the end of 5 weeks, the mice were sacrificed and the brain histology of each group compared to controls that had not received cuprizone. Statistical differences between treatment groups were determined using Mann-Whitney Rank Sum or ANOVA tests with a critical value of 0.05.
(§4) Evaluation of the myelin content of the brains was focused on three areas—the rostral corpus callosum, the dorsal corpus callosum and the cerebellum. The extent of demyelination in both sagittal sections was determined by a board certified veterinary pathologist blinded to animal treatment. Percent demyelination was scored as follows: demyelination ranging from 0 to 10% of the total anatomical structure was scored as 0; demyelination ranging from 11 to 30% of the total anatomical structure was scored as 1; demyelination ranging from 31 to 60% of the total anatomical structure was scored as 2; demyelination ranging from 61 to 90% of the total anatomical structure was scored as 3; and demyelination ranging from 91 to 100% of the total anatomical structure was scored as 4. The extent of MBP staining intensity was based on a 1-4 scale, where 4 was the highest level of staining seen (100%).

[2] = tested on: myelin basic protein (MBP); test: Cuprizone model of demyelination in mice: MBP immunohistochemistry staining score; assay type: in vivo
Method: as §1, §2, §3, §4
In addition, immunohistochemistry was performed for myelin basic protein (MBP), and slides were analyzed for the intensity of MBP staining in the same regions. The mean rostral corpus callosum MBP staining score for the control groups was 4. In the vehicle treated group receiving cuprizone chow, the mean rostral corpus callosum m MBP staining score was 2.9. In the group receiving cuprizone chow and compound A1 at 50 mg/kg, the mean rostral corpus callosum MBP staining score was 3.2. Additional analysis of the rostral corpus callosum MBP staining was conducted using an ANOVA test.

[3] = Cuprizone model in mice: body weight, deaths and toxicity; assay type: in vivo
Method: as §1, §2, §3
All animals were weighed every day in order to assess possible differences in animal weight among treatment groups as an indication of possible toxicity resulting from the treatments. Animals with a weight loss of more than 20% of their starting weight were euthanized. Mice with weight loss of more than 15% of their starting weight were not treated again until weight loss recovered to less than 5% of their starting weight. […] One animal in the cuprizone/vehicle group was also euthanized on Day 20 due to poor condition and weight loss. All remaining mice survived until the end of the study.

Row | Structure (SMILES) | relative MBP binding compared with vehicle control [1] | relative MBP binding (anti-MBP antibody) [1] | mean cerebellar myelination score (C57/B6 mice; 50 mg/kg IP QD, cuprizone chow 5 weeks, not significant) | mean rostral corpus callosum myelination score (C57/B6 mice; 50 mg/kg IP QD, cuprizone chow 5 weeks, not significant vs vehicle) | mean caudal corpus callosum myelination score (C57/B6 mice; 50 mg/kg IP QD, cuprizone chow 5 weeks, p=0.0012 vs vehicle) | demyelination in the rostral corpus callosum vs vehicle treated group (C57/B6 mice; cuprizone mice) | demyelination in the dorsal corpus callosum vs mice receiving vehicle (C57/B6 mice; cuprizone mice, p=0.0012) | mean cerebellum MBP staining score ([2]; 50 mg/kg IP QD, cuprizone chow 5 weeks, 1-4 scale, 4 highest, not significant) | mean rostral corpus callosum MBP staining score ([2]; 50 mg/kg IP QD, cuprizone chow 5 weeks, 1-4 scale, 4 highest, not significant vs vehicle) | mean caudal corpus callosum MBP staining score ([2]; 50 mg/kg IP QD, cuprizone chow 5 weeks, 1-4 scale, 4 highest, p=0.0064 vs vehicle) | MBP expression in the rostral corpus callosum vs vehicle treated group ([2]; cuprizone mice) | MBP expression in the dorsal corpus callosum vs mice receiving vehicle ([2]; cuprizone mice, p=0.0064) | average loss of starting weight during the study ([3]; 50 mg/kg IP QD, cuprizone food, 5 weeks) [%] | toxicity ([3]; 50 mg/kg daily, cuprizone treatment) | mice that suddenly started to lose weight and die ([3]; 100 mg/kg IP QD, cuprizone food, between Days 20 and 24, despite discontinuation of dosing)
1 | Cc1cc(C2CCCCC2)[nH]c(=S)c1 [compound A1, 6-cyclohexyl-4-methylpyridine-2(1H)-thione] | significantly increased above vehicle control | elevated relative MBP binding | 3.2 | 2.1 | 2.1 | no statistically significant differences | significantly less demyelination | 3.8 | 3.2 | 3.1 | no statistically significant differences | significantly less demyelination | 10.6 | no evidence of toxicity beyond that seen in the vehicle group | nine often mice
2 | Cc1cc(C(F)(F)F)cc(=S)[nH]1 [A3, 6-methyl-4-trifluoromethylpyridine-2(1H)-thione] | significantly increased above vehicle control | elevated relative MBP binding | – | – | – | – | – | – | – | – | – | – | – | – | –
3 | Cc1cc(CC(C)CC(C)(C)C)[nH]c(=S)c1 (stereo not drawn) [compound A2, 4-methyl-6-(2,4,4-trimethylpentyl)pyridine-2(1H)-thione] | – | elevated relative MBP binding | – | – | – | – | – | – | – | – | – | – | – | – | –
